# According to patent publication US20240209371A1, “COMPOSITIONS AND METHODS FOR TREATING CANCER” (Dana-Farber Cancer Institute, Inc., priority 2021, published 2024):
# Experiments:
# Type in all cases: cell-based
# mutant KRAS pre-mRNA = test: NGS of remaining full-length KRAS transcript in SW948 cells; settings: dose dependent, decreased from 44%
# From the text: The use of mutant selective antisense oligos can be used to induce aberrant splicing only in tumor cells, but not in normal cells lacking the Q61 mutation, minimizing off target toxicity (FIG. 4 panel a). Using this approach, we induced skipping of whole exon 3 in the KRAS GQ60GK lung cancer CALU6 cell line, in a dose dependent manner (FIG. 4 panel b). […] To assess the selectivity of the morpholino for the KRAS mutant over wild type transcript, the identity of the full-length pre-mRNA contributing to the exon 3 spliced mRNA following morpholino treatment needed to be determined. […] We PCR-amplified KRAS cDNA generated from morpholino treated SW948 cells, separated it by gel electrophoresis and analyzed by NGS the remaining full-length transcript, in order to obtain the ratio of mutant versus wild type KRAS pre-mRNA targeted by the morpholino. […] We next evaluated the effect of these oligos on cell growth. As not all RAS mutant cell lines are dependent on RAS signaling for their growth^28, we determined RAS dependency of each of the Q61 mutant cell lines using KRAS, NRAS or HRAS specific siRNAs, and compared our findings to published gene effect scores for dependency by RNAi and CRISPR knock out obtained from Depmap (depmap.org) (FIG. 4 panel e). […] We also evaluated MEK inhibitor sensitivity in a panel of these cell lines using trametinib (FIG. 10 panel b). […]
# [1] = system: CRISPR-modified PC9 cell lines; test: Cell viability assay of parental or CRISPR-modified PC9 cells with osimertinib
# Experimental: Parental or CRISPR-modified PC9 cell lines (1×10^3 cells) were plated in 384-well plates. After 24 hours, cells were treated with drugs at the indicated concentrations for 72 hours. Endpoint cell viability assays were performed using Cell Titer Glo (Promega). RAS mutant cell lines (2×10^3 cells) were seeded in 384 ultra-low attachment plates as suspension cells and evaluated using 3D-Cell Titer Glo (Promega). RAS mutant cells were treated with trametinib for 3 days and with antisense oligos or siRNA for 8 days.
# ERK1/2 = test: Western blot after osimertinib treatment in PC9 cells
# Experimental: (§1) Cells were lysed with RIPA buffer (Boston Bioproducts) supplemented with complete Mini EDTA-free Protease inhibitor cocktail (Roche) and PhoSTOP phosphatase inhibitor cocktail (Roche). The total cell lysate (20 ug) was subjected to SDS polyacrylamide gel electrophoresis and transferred to Immobilon-P polyvinylidene difluoride membranes (Bio-Rad Laboratories). Antibodies are listed in supplementary table 10. RAS-GTP was evaluated using the Active Ras Detection Kit (#8821, Cell Signaling Technology). Cells were cultured with media containing 0.1% FBS with or without 1 μM osimertinib for 24 hours, and 80 ug of GST-Raf1-RBD and 500 ug of protein lysates were used according to the manufacturer's instructions.
# RAS-GTP = RAS-GTP assay in KRAS expressing PC9 cell lines
# Experimental: as §1
# Q61 mutant cells = test: Exon skipping by PS+2′MOE antisense oligos in Q61 mutant cells; settings: in vitro
# Experimental: RNA was extracted using the RNeasy Mini kit (Qiagen) and cDNA was synthesized using the QuantiTect Reverse Transcription Kit (Qiagen). Isoforms were amplified using gene-specific-primers (FIG. 24) and amplicons were resolved on a 2% agarose gel. Isoforms were characterized by Sanger sequencing.
# RAS mutant cell lines in culture media were treated in suspension with indicated concentrations of morpholino and 3-6 μM endo-porter (Gene Tools). Duration of treatment was 2 days for RNA experiments, 3 days for western blot, and 8 days for growth-inhibition assay based on previously published treatment protocols with KRAS selective inhibitors against RAS mutant cells^4. In all experiments using full PS+2′MOE antisense oligos, medium was enriched with Ca^2+. Ca^2+ enrichment of medium potentiates the in vitro activity of multiple types of oligonucleotides and is more reflective of in vivo conditions than conventional transfection methods^42. Duration of treatment was 2 days for RNA experiments, 6 days for western blot, and 8 days for growth-inhibition assay.
molecule,measurement,setting,value
mor-4: morpholino targeting KRAS Q61L; M4 / mor-4-4 sequence 5′-GTACTCCTCTAGACCTGCTGTGTCG-3′ (all phosphorodiamidate morpholino (PMO)),fraction of mutant KRAS pre-mRNA within the full-length transcript species,mutant KRAS pre-mRNA,22%
C=CC(=O)Nc1cc(Nc2nccc(-c3cn(C)c4ccccc34)n2)c(OC)cc1N(C)CCN(C)C [osimertinib],"effect of osimertinib on KRAS G12C, G12D, A146T, or BRAF V600E clones",[1]; 1 μM osimertinib,largely unaffected
same,osimertinib sensitivity of PC9 with heterozygous KRAS GQ60GK or Q61H,[1]; heterozygous mutations,resistance
same,osimertinib sensitivity of PC9 clones harboring KRAS Q61K without silent mutation,[1]; single-cell clones,growth inhibition comparable to that of parental PC9 cells
same,"ERK1/2 activation following osimertinib, KRAS GQ60GK c.180_181 delinsAA cells",ERK1/2; PC9 KRAS GQ60GK,persistent ERK1/2 activation
same,"ERK1/2 activation following osimertinib, KRAS Q61K alone cells",ERK1/2; PC9 KRAS Q61K alone,not in cells expressing KRAS Q61K alone
same,"RAS-GTP levels after osimertinib, KRAS GQ60GK",RAS-GTP; PC9 KRAS GQ60GK,minimally affected
same,"RAS-GTP after osimertinib, KRAS Q61K single mutant or KRAS wild type parental PC9",RAS-GTP; PC9 Q61K or parental,decrease in RAS-GTP
"PS+MOE 1-3: 20nt PS+2′MOE antisense oligo; 1-3 sequence 5′-ACTCCTCTTTGCCTGCTGTG-3′ (all 2'-MOE, all phosphorothioate, methylation of C not given here)",mutant selective exon skipping compared with morpholino oligos,Q61 mutant cells,mutant selective skipping at a much lower concentration
